The values below come from patent US9340590B2 (priority 2011, dated 2016).

Like-named read-outs stand apart in the source and are kept apart here. Positions of bridges follow the written chain, without caps; N, C: chain ends. Non-standard residues stand in square brackets, D forms with d. Residues, ends and D or L forms follow the SMILES beside them. 1Nal = N[C@@H](Cc1cccc2ccccc12)C(=O)O

One test addresses hNav1.3 (Homo sapiens, UniProt Q9NY46). The test is described as follows: cell-based. The note with it: IonWorks Quattro, read-out: IWQ Use Nav1.3. A general note: Patch clamp records ionic current or voltage across a cell membrane.
The next test concerns the target hNav1.5 (Homo sapiens, UniProt Q14524). Nature of the test: cell-based.
Where [1] appears, read: clamped to −110 mV, depolarized to −10 mV, 5 min after compound, n=2.

Chain of hNav1.3 (Q9NY46 whole entry, looked up): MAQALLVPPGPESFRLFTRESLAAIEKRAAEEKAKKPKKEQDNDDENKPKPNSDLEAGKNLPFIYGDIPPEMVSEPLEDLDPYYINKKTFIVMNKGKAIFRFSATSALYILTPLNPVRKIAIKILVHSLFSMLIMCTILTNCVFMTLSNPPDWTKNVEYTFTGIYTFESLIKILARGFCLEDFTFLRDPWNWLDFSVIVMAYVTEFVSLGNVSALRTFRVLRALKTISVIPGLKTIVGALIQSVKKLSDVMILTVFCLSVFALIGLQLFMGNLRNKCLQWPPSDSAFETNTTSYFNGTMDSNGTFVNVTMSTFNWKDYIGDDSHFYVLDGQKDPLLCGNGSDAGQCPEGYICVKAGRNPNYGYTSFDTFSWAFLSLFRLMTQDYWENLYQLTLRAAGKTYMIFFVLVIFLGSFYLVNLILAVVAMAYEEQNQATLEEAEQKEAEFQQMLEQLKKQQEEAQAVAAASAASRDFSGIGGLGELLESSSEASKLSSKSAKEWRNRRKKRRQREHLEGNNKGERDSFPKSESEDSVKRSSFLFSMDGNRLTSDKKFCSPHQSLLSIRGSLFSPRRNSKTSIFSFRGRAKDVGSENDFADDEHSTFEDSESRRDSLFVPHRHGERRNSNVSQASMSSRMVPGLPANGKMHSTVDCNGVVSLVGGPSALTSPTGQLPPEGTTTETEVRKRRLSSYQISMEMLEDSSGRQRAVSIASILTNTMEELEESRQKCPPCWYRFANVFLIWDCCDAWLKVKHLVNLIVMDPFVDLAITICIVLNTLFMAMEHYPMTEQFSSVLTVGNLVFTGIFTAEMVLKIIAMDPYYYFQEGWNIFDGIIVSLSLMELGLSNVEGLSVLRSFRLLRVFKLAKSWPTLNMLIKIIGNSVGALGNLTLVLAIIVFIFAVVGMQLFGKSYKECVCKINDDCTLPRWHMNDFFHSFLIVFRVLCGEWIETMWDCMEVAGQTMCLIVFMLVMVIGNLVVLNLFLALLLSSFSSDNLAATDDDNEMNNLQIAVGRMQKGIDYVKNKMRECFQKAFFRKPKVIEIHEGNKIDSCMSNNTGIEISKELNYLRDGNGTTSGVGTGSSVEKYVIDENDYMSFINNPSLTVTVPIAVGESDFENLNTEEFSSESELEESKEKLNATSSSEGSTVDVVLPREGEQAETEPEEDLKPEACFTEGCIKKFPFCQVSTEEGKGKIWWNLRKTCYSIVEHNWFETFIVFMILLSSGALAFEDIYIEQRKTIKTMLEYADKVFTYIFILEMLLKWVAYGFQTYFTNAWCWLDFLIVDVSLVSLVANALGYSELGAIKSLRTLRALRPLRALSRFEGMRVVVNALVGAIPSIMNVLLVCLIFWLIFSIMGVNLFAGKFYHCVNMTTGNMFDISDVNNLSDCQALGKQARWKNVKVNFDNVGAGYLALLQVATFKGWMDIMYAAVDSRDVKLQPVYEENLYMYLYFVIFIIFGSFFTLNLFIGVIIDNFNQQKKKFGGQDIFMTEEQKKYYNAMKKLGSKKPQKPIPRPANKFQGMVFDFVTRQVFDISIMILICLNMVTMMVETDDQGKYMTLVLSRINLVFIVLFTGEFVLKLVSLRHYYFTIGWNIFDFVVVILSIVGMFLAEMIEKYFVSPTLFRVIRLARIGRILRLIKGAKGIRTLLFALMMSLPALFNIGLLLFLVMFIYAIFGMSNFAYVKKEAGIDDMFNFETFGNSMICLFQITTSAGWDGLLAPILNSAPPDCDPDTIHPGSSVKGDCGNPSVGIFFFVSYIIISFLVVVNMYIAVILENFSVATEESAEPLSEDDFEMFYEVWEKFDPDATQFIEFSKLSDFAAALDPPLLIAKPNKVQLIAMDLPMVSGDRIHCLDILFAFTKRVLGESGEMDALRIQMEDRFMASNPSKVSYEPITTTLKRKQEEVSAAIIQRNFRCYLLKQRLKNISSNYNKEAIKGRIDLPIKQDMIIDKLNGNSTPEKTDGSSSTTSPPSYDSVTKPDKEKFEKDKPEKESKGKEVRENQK
Chain of hNav1.5 (Q14524 whole entry, looked up): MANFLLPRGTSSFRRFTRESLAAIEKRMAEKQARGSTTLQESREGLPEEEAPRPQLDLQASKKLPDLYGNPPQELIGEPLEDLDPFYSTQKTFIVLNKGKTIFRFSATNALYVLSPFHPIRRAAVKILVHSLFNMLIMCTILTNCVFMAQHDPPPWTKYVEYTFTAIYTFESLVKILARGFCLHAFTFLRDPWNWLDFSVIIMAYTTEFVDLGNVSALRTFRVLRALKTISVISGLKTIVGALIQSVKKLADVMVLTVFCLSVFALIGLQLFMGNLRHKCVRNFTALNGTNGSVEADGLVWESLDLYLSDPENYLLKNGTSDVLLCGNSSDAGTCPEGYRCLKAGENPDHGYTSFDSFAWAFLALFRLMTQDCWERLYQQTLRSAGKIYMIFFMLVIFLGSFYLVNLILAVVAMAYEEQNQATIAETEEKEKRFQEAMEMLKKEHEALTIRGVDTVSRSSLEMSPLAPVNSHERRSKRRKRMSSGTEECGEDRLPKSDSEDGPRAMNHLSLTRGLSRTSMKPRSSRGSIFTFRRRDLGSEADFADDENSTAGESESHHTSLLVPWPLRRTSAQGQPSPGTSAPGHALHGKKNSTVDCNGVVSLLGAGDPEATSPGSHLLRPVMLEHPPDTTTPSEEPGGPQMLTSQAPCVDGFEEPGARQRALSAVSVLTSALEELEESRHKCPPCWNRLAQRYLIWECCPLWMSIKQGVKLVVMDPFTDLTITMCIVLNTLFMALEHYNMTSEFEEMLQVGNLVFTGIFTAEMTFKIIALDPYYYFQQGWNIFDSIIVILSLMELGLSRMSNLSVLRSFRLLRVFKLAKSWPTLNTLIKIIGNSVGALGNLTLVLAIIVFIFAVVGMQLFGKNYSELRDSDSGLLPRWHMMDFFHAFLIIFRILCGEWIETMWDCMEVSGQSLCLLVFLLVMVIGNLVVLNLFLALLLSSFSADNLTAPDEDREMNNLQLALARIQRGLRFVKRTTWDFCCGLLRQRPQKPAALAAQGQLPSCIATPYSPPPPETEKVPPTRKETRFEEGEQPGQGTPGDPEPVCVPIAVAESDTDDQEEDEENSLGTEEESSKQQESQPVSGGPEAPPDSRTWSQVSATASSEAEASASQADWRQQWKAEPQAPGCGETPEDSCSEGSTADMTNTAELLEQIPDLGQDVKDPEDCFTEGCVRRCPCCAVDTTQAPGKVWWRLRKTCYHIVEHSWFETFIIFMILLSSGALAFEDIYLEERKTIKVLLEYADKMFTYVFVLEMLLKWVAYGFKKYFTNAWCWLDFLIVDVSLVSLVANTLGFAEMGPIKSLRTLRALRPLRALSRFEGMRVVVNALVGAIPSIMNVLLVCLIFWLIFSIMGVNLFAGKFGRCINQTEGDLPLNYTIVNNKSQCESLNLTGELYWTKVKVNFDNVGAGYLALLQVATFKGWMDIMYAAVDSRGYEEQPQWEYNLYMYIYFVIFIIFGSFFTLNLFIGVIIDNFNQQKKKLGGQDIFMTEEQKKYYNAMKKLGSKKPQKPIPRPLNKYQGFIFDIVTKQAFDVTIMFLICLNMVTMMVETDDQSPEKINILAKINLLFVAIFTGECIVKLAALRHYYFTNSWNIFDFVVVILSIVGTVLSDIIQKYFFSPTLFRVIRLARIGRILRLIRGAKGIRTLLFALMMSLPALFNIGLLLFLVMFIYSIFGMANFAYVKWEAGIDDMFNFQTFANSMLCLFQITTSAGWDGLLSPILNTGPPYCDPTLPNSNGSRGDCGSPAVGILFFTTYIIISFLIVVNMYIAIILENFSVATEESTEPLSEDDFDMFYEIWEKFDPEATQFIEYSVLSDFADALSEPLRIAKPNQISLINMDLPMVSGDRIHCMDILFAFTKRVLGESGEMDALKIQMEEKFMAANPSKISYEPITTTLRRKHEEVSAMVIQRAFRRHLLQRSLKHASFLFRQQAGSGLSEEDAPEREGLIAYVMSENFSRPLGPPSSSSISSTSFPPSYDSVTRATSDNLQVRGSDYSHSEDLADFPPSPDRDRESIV

On to `CC[C@H](C)[C@@H]1NC(=O)[C@@H]2CSSC[C@@H]3NC(=O)[C@H](C(C)C)NC(=O)[C@H](CC(C)C)NC(=O)[C@H](CC(N)=O)NC(=O)[C@@H]4CCCN4C(=O)[C@H](CCCNC(=N)N)NC(=O)[C@H](CSSC[C@H](NC(=O)[C@@H](N)CC(=O)O)C(=O)N[C@@H](CC(C)C)C(=O)N[C@@H](CCC(=O)O)C(=O)N[C@@H](Cc4ccccc4)C(=O)N[C@@H](CCSC)C(=O)N[C@@H](CCCNC(=N)N)C(=O)N[C@@H](CCCCN)C(=O)N2)NC(=O)[C@H](CSSC[C@@H](C(=O)N[C@@H](CCCCN)C(=O)N[C@@H](Cc2ccc(O)cc2)C(=O)N[C@H](C(=O)N[C@@H](Cc2ccccc2)C(N)=O)C(C)C)NC(=O)[C@H](Cc2c[nH]c4ccccc24)NC(=O)[C@H](CCCCN)NC(=O)[C@H](Cc2cnc[nH]2)NC(=O)[C@H]([C@@H](C)O)NC(=O)[C@H](CCCNC(=N)N)NC(=O)[C@H](CO)NC3=O)NC(=O)[C@H](CCCCN)NC(=O)[C@H](CC(=O)O)NC(=O)[C@H](CC(N)=O)NC(=O)[C@H](CC(=O)O)NC(=O)[C@@H]2CCCN2C1=O` [SEQ ID NO: 24] (H-DCLEFMRKCIPDNDKCCRPNLVCSRTHKWCKYVF-NH2; disulfide 2-17, 9-23, 16-30), for which the IC50 on hNav1.3 (setting [1]) is 1.33 µM; against hNav1.5 (IWQ Use Nav1.5), 17.6 µM.

In the case of `CC[C@H](C)[C@@H]1NC(=O)[C@@H]2CSSC[C@@H]3NC(=O)[C@H](C(C)C)NC(=O)[C@H](CC(C)C)NC(=O)[C@H](CC(N)=O)NC(=O)[C@@H]4CCCN4C(=O)[C@H](CCCNC(=N)N)NC(=O)[C@H](CSSC[C@H](NC(=O)[C@@H](N)CC(=O)O)C(=O)N[C@@H](CC(C)C)C(=O)NCC(=O)N[C@@H](Cc4ccccc4)C(=O)N[C@@H](CCSC)C(=O)N[C@@H](CCCNC(=N)N)C(=O)N[C@@H](CCCCN)C(=O)N2)NC(=O)[C@H](CSSC[C@@H](C(=O)N[C@@H](CCCCN)C(=O)N[C@@H](Cc2ccc(O)cc2)C(=O)N[C@@H](CCC(=O)O)C(=O)N[C@@H](Cc2ccccc2)C(N)=O)NC(=O)[C@H](Cc2c[nH]c4ccccc24)NC(=O)[C@H](CCCCN)NC(=O)[C@H](Cc2cnc[nH]2)NC(=O)[C@H]([C@@H](C)O)NC(=O)[C@H](CCCNC(=N)N)NC(=O)[C@H](CO)NC3=O)NC(=O)[C@H](CCCCN)NC(=O)[C@H](CC(=O)O)NC(=O)[C@H](CC(N)=O)NC(=O)[C@H](CC(=O)O)NC(=O)[C@@H]2CCCN2C1=O` [SEQ ID NO: 33, [Glu33]GpTx-1] (H-DCLGFMRKCIPDNDKCCRPNLVCSRTHKWCKYEF-NH2; disulfide 2-17, 9-23, 16-30), the IC50 amounted to 0.39 µM on hNav1.3 (Table 26, use, […]) and 11.5 µM at hNav1.5 (Table 26, IonWorks Quattro, use, […], read-out: IWQ Use Nav1.5).

For `CC[C@H](C)[C@@H]1NC(=O)[C@@H]2CSSC[C@@H]3NC(=O)[C@H](C(C)C)NC(=O)[C@H](CC(C)C)NC(=O)[C@H](CC(N)=O)NC(=O)[C@@H]4CCCN4C(=O)[C@H](CCCNC(=N)N)NC(=O)[C@H](CSSC[C@H](NC(=O)[C@@H](N)CCCCN)C(=O)N[C@@H](CC(C)C)C(=O)NCC(=O)N[C@@H](Cc4ccccc4)C(=O)N[C@@H](CCSC)C(=O)N[C@@H](CCCNC(=N)N)C(=O)N[C@@H](CCCCN)C(=O)N2)NC(=O)[C@H](CSSC[C@@H](C(=O)N[C@@H](CCCCN)C(=O)N[C@@H](Cc2ccc(O)cc2)C(=O)N[C@H](C(=O)N[C@@H](Cc2ccccc2)C(N)=O)C(C)C)NC(=O)[C@H](Cc2c[nH]c4ccccc24)NC(=O)[C@H](CCCCN)NC(=O)[C@H](Cc2cnc[nH]2)NC(=O)[C@H]([C@@H](C)O)NC(=O)[C@H](CCCNC(=N)N)NC(=O)[C@H](CO)NC3=O)NC(=O)[C@H](CCCCN)NC(=O)[C@H](CC(=O)O)NC(=O)[C@H](CC(N)=O)NC(=O)[C@H](CC(=O)O)NC(=O)[C@@H]2CCCN2C1=O` [SEQ ID NO: 37] (H-KCLGFMRKCIPDNDKCCRPNLVCSRTHKWCKYVF-NH2; disulfide 2-17, 9-23, 16-30), the IC50 at hNav1.3 (setting [1]) is 0.07 µM; on hNav1.5 (IWQ Use Nav1.5) it was 7.29 µM.

As to `CC[C@H](C)[C@@H]1NC(=O)[C@@H]2CSSC[C@@H]3NC(=O)[C@H](C(C)C)NC(=O)[C@H](CC(C)C)NC(=O)[C@H](CC(N)=O)NC(=O)[C@@H]4CCCN4C(=O)[C@H](CCCNC(=N)N)NC(=O)[C@H](CSSC[C@H](NC(=O)[C@@H](N)CCCNC(=N)N)C(=O)N[C@@H](CC(C)C)C(=O)NCC(=O)N[C@@H](Cc4ccccc4)C(=O)N[C@@H](CCSC)C(=O)N[C@@H](CCCNC(=N)N)C(=O)N[C@@H](CCCCN)C(=O)N2)NC(=O)[C@H](CSSC[C@@H](C(=O)N[C@@H](CCCCN)C(=O)N[C@@H](Cc2ccc(O)cc2)C(=O)N[C@H](C(=O)N[C@@H](Cc2ccccc2)C(N)=O)C(C)C)NC(=O)[C@H](Cc2c[nH]c4ccccc24)NC(=O)[C@H](CCCCN)NC(=O)[C@H](Cc2cnc[nH]2)NC(=O)[C@H]([C@@H](C)O)NC(=O)[C@H](CCCNC(=N)N)NC(=O)[C@H](CO)NC3=O)NC(=O)[C@H](CCCCN)NC(=O)[C@H](CC(=O)O)NC(=O)[C@H](CC(N)=O)NC(=O)[C@H](CC(=O)O)NC(=O)[C@@H]2CCCN2C1=O` [SEQ ID NO: 62] (H-RCLGFMRKCIPDNDKCCRPNLVCSRTHKWCKYVF-NH2; disulfide 2-17, 9-23, 16-30), the IC50 on hNav1.3 (setting [1]) worked out at 0.1 µM; on hNav1.5 (IonWorks Quattro, clamped to −110 mV, depolarized to −10 mV, 5 min after compound, n=2, read-out: IWQ Use Nav1.5) it was 8.78 µM.

For `CC[C@H](C)[C@@H]1NC(=O)[C@@H]2CSSC[C@@H]3NC(=O)[C@H](C(C)C)NC(=O)[C@H](CC(C)C)NC(=O)[C@H](CC(N)=O)NC(=O)[C@@H]4CCCN4C(=O)[C@H](CCCNC(=N)N)NC(=O)[C@H](CSSC[C@H](NC(=O)[C@@H](N)CC(=O)O)C(=O)N[C@@H](CC(C)C)C(=O)NCC(=O)N[C@@H](Cc4ccccc4)C(=O)N[C@@H](CCSC)C(=O)N[C@@H](CCCNC(=N)N)C(=O)N[C@@H](CCCCN)C(=O)N2)NC(=O)[C@H](CSSC[C@@H](C(=O)N[C@@H](CCCCN)C(=O)N[C@@H](Cc2ccc(O)cc2)C(=O)N[C@H](C(=O)N[C@@H](Cc2ccccc2)C(N)=O)C(C)C)NC(=O)[C@H](Cc2cccc4ccccc24)NC(=O)[C@H](CCCCN)NC(=O)[C@H](Cc2cnc[nH]2)NC(=O)[C@H]([C@@H](C)O)NC(=O)[C@H](CCCNC(=N)N)NC(=O)[C@H](CO)NC3=O)NC(=O)[C@H](CCCCN)NC(=O)[C@H](CC(=O)O)NC(=O)[C@H](CC(N)=O)NC(=O)[C@H](CC(=O)O)NC(=O)[C@@H]2CCCN2C1=O` [SEQ ID NO: 79, [1-Nal29]GpTx-1] (H-DCLGFMRKCIPDNDKCCRPNLVCSRTHK[1Nal]CKYVF-NH2; disulfide 2-17, 9-23, 16-30), the IC50 is 1.55 µM at hNav1.3 (Table 24, use, […]) and 9.25 µM on hNav1.5 (Table 24, IonWorks Quattro, use, […], read-out: IWQ Use Nav1.5).

As for `CSCC[C@@H]1NC(=O)[C@H](Cc2ccccc2)NC(=O)CNC(=O)[C@H](CC(C)C)NC(=O)[C@@H](NC(=O)[C@@H](N)CC(=O)O)CSSC[C@@H]2NC(=O)[C@@H]3CSSC[C@@H](C(=O)N[C@@H](CCCCN)C(=O)N[C@@H](Cc4ccc(O)cc4)C(=O)N[C@H](C(=O)N[C@@H](Cc4ccccc4)C(N)=O)C(C)C)NC(=O)[C@H](Cc4c[nH]c5ccccc45)NC(=O)[C@H](CCCCN)NC(=O)[C@H](Cc4cnc[nH]4)NC(=O)[C@H]([C@@H](C)O)NC(=O)[C@H](CCCNC(=N)N)NC(=O)[C@H](CO)NC(=O)[C@H](CSSC[C@H](NC(=O)[C@H](CCCCN)NC(=O)[C@H](CCCNC(=N)N)NC1=O)C(=O)N[C@@H](CC(=O)O)C(=O)N1CCC[C@H]1C(=O)N[C@@H](CC(=O)O)C(=O)N[C@@H](CC(N)=O)C(=O)N[C@@H](CC(=O)O)C(=O)N[C@@H](CCCCN)C(=O)N3)NC(=O)[C@H](C(C)C)NC(=O)[C@H](CC(C)C)NC(=O)[C@H](CC(N)=O)NC(=O)[C@@H]1CCCN1C(=O)[C@H](CCCNC(=N)N)NC2=O` [SEQ ID NO: 119, [Asp10]GpTx-1] (H-DCLGFMRKCDPDNDKCCRPNLVCSRTHKWCKYVF-NH2; disulfide 2-17, 9-23, 16-30), the IC50 was 0.16 µM at hNav1.3 (Use) and 11.3 µM on hNav1.5 (IonWorks Quattro, Use, read-out: IWQ Use Nav1.5).

On to `CC[C@H](C)[C@@H]1NC(=O)[C@@H]2CSSC[C@@H]3NC(=O)[C@H](C(C)C)NC(=O)[C@H](CC(C)C)NC(=O)[C@H](CC(N)=O)NC(=O)[C@@H]4CCCN4C(=O)[C@H](CCCNC(=N)N)NC(=O)[C@H](CSSC[C@H](NC(=O)[C@@H](N)CC(=O)O)C(=O)N[C@@H](CC(C)C)C(=O)N[C@@H](C)C(=O)N[C@@H](Cc4ccccc4)C(=O)N[C@@H](CCSC)C(=O)N[C@@H](CCCNC(=N)N)C(=O)N[C@@H](CCCCN)C(=O)N2)NC(=O)[C@H](CSSC[C@@H](C(=O)N[C@@H](CCCCN)C(=O)N[C@@H](Cc2ccc(O)cc2)C(=O)N[C@H](C(=O)N[C@@H](Cc2ccccc2)C(N)=O)C(C)C)NC(=O)[C@H](Cc2c[nH]c4ccccc24)NC(=O)[C@H](CCCCN)NC(=O)[C@H](Cc2cnc[nH]2)NC(=O)[C@H]([C@@H](C)O)NC(=O)[C@H](CCCNC(=N)N)NC(=O)[C@H](CO)NC3=O)NC(=O)[C@H](CCCCN)NC(=O)[C@H](CC(=O)O)NC(=O)[C@H](CC(N)=O)NC(=O)[C@H](CC(=O)O)NC(=O)[C@@H]2CCCN2C1=O` [SEQ ID NO: 141] (H-DCLAFMRKCIPDNDKCCRPNLVCSRTHKWCKYVF-NH2; disulfide 2-17, 9-23, 16-30), for which the figures for the IC50 on hNav1.3 (setting [1]) and on hNav1.5 (IWQ Use Nav1.5) were 0.21 µM and 11.3 µM, respectively.
